The results in this text go back to ChEMBL document CHEMBL4616637, “Proximicins F and G and Diproximicin A: Aminofurans from the Marine-Derived Verrucosispora sp. SCSIO 40062 by Overexpression of PPtase Genes” (J Nat Prod, 2020).

Test [1] relates to Staphylococcus aureus. In words: Antibacterial activity against Staphylococcus aureus ATCC 29213 by CLSI based susceptibility test method. Type of test: functional.
In test [2] the test system is Staphylococcus aureus. In words: Antibacterial activity against methicillin-resistant Staphylococcus aureus shhsA1 by CLSI based susceptibility test method. It counts as functional.
A further test relates to Bacillus subtilis. As to the kind of experiment: Antibacterial activity against Bacillus subtilis 1064 by CLSI based susceptibility test method. Type of test: functional.
A further test has as its system Micrococcus luteus. As to the kind of experiment: Antibacterial activity against Micrococcus luteus SCSIO ML01 by CLSI based susceptibility test method. Type of test: functional.
The species entered for the next test is Homo sapiens. In words: Inhibition of alpha-glucosidase (unknown origin) at 20 uM using pNPG as substrate preincubated for 15 mins followed by substrate addition and measured after 15 mins.
In test [3] the target is T1, Tyrosinase (Homo sapiens) (UniProt P14679).
T1 sequence (whole entry): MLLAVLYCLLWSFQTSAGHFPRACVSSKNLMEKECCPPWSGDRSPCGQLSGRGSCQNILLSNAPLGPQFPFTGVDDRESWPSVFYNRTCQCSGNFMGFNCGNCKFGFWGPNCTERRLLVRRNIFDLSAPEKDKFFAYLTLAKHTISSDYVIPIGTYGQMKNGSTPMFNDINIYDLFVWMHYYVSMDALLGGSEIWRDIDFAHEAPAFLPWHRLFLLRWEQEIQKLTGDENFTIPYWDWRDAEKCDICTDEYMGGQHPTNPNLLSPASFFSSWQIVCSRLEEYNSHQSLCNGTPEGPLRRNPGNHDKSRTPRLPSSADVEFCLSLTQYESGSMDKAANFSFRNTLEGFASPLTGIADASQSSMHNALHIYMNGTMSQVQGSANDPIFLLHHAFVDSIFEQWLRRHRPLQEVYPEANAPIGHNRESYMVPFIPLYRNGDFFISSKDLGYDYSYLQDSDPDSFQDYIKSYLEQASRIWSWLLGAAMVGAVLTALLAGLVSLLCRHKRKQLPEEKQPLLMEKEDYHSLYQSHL
As to the kind of experiment: Inhibition of tyrosinase (unknown origin) at 20 uM using L-DOPA as substrate.

Test [4] concerns the target Acetylcholinesterase (Electrophorus electricus) (UniProt O42275). As to the kind of experiment: Inhibition of electric eel AChE at 20 uM using acetylthiocholine iodide as substrate incubated for 6 mins by Ellman's method.
Another test has as its system SF-268. As to the kind of experiment: Cytotoxicity against human SF268 cells assessed as reduction in cell viability after 48 hrs by SRB assay. It counts as functional, cell-based. The following applies: SF-268, 48 h.
The test system of another test is MCF7. In words: Cytotoxicity against human MCF7 cells assessed as reduction in cell viability after 48 hrs by SRB assay. It counts as functional, cell-based. The following applies: MCF7, 48 h.
Another test relates to HepG2. In words: Cytotoxicity against human HepG2 cells assessed as reduction in cell viability after 48 hrs by SRB assay. Type of test: functional, cell-based. Particulars: HepG2, 48 h.
For another test, the system named is A549. In words: Cytotoxicity against human A549 cells assessed as reduction in cell viability after 48 hrs by SRB assay. Type of test: functional, cell-based. Particulars: A549, 48 h.

Structures are written as SMILES. pIC50: −log10 of the molar value. ≈ marks a conversion by molar mass, not a printed value. Calls of active or inactive are those of the source. The rule behind the calls is not given here. Some results are limits rather than exact numbers.

Chain of Acetylcholinesterase (Electrophorus electricus) (O42275 24-633 limits assumed): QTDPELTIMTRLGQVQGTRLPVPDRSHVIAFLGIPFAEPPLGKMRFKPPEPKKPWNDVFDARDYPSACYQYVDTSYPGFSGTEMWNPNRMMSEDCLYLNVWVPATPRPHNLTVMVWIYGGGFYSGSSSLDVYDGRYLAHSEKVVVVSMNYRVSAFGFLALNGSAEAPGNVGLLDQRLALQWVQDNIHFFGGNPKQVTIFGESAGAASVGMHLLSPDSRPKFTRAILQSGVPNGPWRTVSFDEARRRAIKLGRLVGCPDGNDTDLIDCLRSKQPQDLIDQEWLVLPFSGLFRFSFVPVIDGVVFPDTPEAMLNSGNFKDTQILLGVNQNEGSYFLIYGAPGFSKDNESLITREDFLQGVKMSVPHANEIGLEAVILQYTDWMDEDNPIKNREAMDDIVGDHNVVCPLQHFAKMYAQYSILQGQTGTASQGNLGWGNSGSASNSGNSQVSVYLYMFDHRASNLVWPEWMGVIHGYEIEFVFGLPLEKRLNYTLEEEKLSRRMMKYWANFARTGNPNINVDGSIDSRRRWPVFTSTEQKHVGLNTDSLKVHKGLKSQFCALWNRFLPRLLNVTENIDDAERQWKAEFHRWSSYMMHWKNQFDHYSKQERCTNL

As to `CNC(=O)c1cc(NC(=O)c2cc(NC(=O)OC)co2)co1`, the MIC in the test with Staphylococcus aureus [1], with Staphylococcus aureus [2], against Bacillus subtilis and in the test on Micrococcus luteus was greater than 64 µg/mL throughout. Also, the inhibition entry (in the test listed under Homo sapiens; in test [3]; in [4]) was “inactive” in each case. In addition, the pIC50 with SF-268, in the test with MCF7, in the test on HepG2 and with A549 was less than 5.00 throughout.

With `COC(=O)Nc1coc(C(=O)Nc2coc(C(=O)NCCc3ccc(O)cc3)c2)c1` [PROXIMICIN B], the minimal inhibitory concentration (MIC) against Staphylococcus aureus [1] is 16 µg/mL (≈ 38.7 µM); in the test on Staphylococcus aureus [2] it was 16 µg/mL (≈ 38.7 µM); with Bacillus subtilis, 8 µg/mL (≈ 19.4 µM); with Micrococcus luteus it was greater than 64 µg/mL. Moreover, the inhibition entry (in the test listed under Homo sapiens; in test [3]; in test [4]) was “inactive” in each case. In addition, the pIC50 with SF-268, in the test with MCF7, in the test with HepG2 and in the test with A549 was less than 5.00 in each case.

`C[S+](C)[O-]` [DIMETHYL SULFOXIDE]: the minimum inhibitory concentration (MIC) against Staphylococcus aureus [1], against Staphylococcus aureus [2], against Bacillus subtilis and in the test with Micrococcus luteus was greater than 64 µg/mL throughout.

With `COc1cc(Cc2cnc(N)nc2N)cc(OC)c1OC` [TRIMETHOPRIM], the MIC was 2 µg/mL (≈ 6.89 µM) against Staphylococcus aureus [1], greater than 64 µg/mL against Staphylococcus aureus [2], 0.25 µg/mL (≈ 0.861 µM) in the test with Bacillus subtilis and 2 µg/mL (≈ 6.89 µM) against Micrococcus luteus.

Take `COC(=O)Nc1coc(C(=O)Nc2coc(C(=O)NCCc3c[nH]c4ccccc34)c2)c1` [PROXIMICIN C]: the MIC with Staphylococcus aureus [1], in the test with Staphylococcus aureus [2], in the test on Bacillus subtilis and in the test with Micrococcus luteus was greater than 64 µg/mL in each case. The inhibition result (in the test filed under Homo sapiens; in [3]; in test [4]) was “inactive” in each case. The pIC50 in the test on SF-268, in the test on MCF7, with HepG2 and with A549 was less than 5.00 each time.

Turning to `CN[C@H](CC(C)C)C(=O)N[C@H]1C(=O)N[C@@H](CC(N)=O)C(=O)N[C@H]2C(=O)N[C@H]3C(=O)N[C@H](C(=O)N[C@H](C(=O)O)c4cc(O)cc(O)c4-c4cc3ccc4O)[C@H](O)c3ccc(c(Cl)c3)Oc3cc2cc(c3O[C@@H]2O[C@H](CO)[C@@H](O)[C@H](O)[C@H]2O[C@H]2C[C@](C)(N)[C@H](O)[C@H](C)O2)Oc2ccc(cc2Cl)[C@H]1O` [VANCOMYCIN], the minimal inhibitory concentration (MIC) in the test on Bacillus subtilis worked out at 0.5 µg/mL (≈ 0.345 µM); against Micrococcus luteus, 0.25 µg/mL (≈ 0.173 µM).

Take `CC1(C)S[C@@H]2[C@H](NC(=O)[C@H](N)c3ccccc3)C(=O)N2[C@H]1C(=O)O` [AMPICILLIN]: the minimal inhibitory concentration (MIC) was 0.25 µg/mL (≈ 0.715 µM) with Staphylococcus aureus [1], greater than 64 µg/mL with Staphylococcus aureus [2], 0.25 µg/mL (≈ 0.715 µM) against Bacillus subtilis and 0.5 µg/mL (≈ 1.43 µM) against Micrococcus luteus.

On to `COC(=O)Nc1coc(C(=O)Nc2coc(C(=O)NCCCCCNC(=O)c3cc(NC(=O)c4cc(NC(=O)OC)co4)co3)c2)c1`, for which the minimum inhibitory concentration (MIC) in the test with Staphylococcus aureus [1], with Staphylococcus aureus [2], against Bacillus subtilis and against Micrococcus luteus was greater than 64 µg/mL in each case. The inhibition entry (in the test filed under Homo sapiens; in [3]; in test [4]) was “inactive” throughout. The pIC50 in the test on SF-268, in the test on MCF7, in the test with HepG2 and with A549 was less than 5.00 throughout.

In the case of `COC(=O)Nc1coc(C(=O)Nc2coc(C(=O)NCCc3ccccc3)c2)c1`, the MIC against Staphylococcus aureus [1] is greater than 64 µg/mL; with Staphylococcus aureus [2], greater than 64 µg/mL; against Bacillus subtilis, 32 µg/mL (≈ 80.5 µM); in the test on Micrococcus luteus, greater than 64 µg/mL. For the same compound, the inhibition result (in the test filed under Homo sapiens; in [3]; in test [4]) was “inactive” in each case.
